Literature values as cited in PMC7395068, “The evolution of strategies to minimise the risk of human drug-induced liver injury (DILI) in drug discovery and development” (Archives of Toxicology, 2020).
Read-outs that look alike come from different tables or passages of the source.

How the values were obtained:
[1] = test system: HepG2 cells, primary human hepatocytes; conditions: cited from earlier work
human hepatocytes = conditions: In vitro Assay; ref Xu 2008; cited from earlier work
[2] = cited from earlier work
HepG2 cells [3] = conditions: In vitro Assay; ref Persson 2013; cited from earlier work
HepG2 cells [4] = conditions: cited from earlier work
PHH spheroids = conditions: In vitro Assay; ref Vorrink 2018; cited from earlier work
[5] = cited from earlier work; remark: listed apart in the source
rBsep = conditions: In vitro Assay; ref Dawson 2012; cited from earlier work
[6] = test system: THLE or HepG2 cells, isolated mitochondria, BSEP; conditions: cited from earlier work
[7] = test system: THLE-Null and THLE-3A4 cells; conditions: In vitro Assay; ref Gustafsson 2014; cited from earlier work
[8] = test system: primary human hepatocytes, NIH3T3 fibroblasts, BSEP, CYP3A4; conditions: cited from earlier work
[9] = test system: isolated mouse liver mitochondria; conditions: In vitro Assay; ref Porceddu 2012; cited from earlier work
[10] = In vitro Assay, ref Garside 2014
[11] = In vitro Assay, ref O'Brien 2006
[12] = In vitro Assay, ref Schadt 2015
[13] = assignment in Garside 2014, ref Garside 2014

SMILES: c1ccc(CN(CC2=NCCN2)c2ccccc2)cc1 [antazoline]
- Cluster 1-6 +VE Assay [1, 10]: -VE

SMILES: [N-]=[N+]=CC(=O)OC[C@H](N)C(=O)O [azaserine]
- Cluster 1-6 +VE Assay [1, 10]: +VE
- Structural based (HCI) (human hepatocytes): -VE

SMILES: CN(C)C(=O)Oc1cc(OC(=O)N(C)C)cc(C(O)CNC(C)(C)C)c1 (stereo not drawn) [bambuterol]
- In vivo DILI ([2]; ref O'Brien 2006): -VE
- In vivo DILI ([2]; ref Persson 2013): -VE
- In vivo DILI ([2]; ref Vorrink 2018): -VE
- In vivo DILI ([2]; ref Xu 2008): -VE
- Cluser analysis (HepG2 cells [3]): -VE
- Structural based (HCI) (HepG2 cells [3]): -VE
- Structural based (HCI) (human hepatocytes): -VE
- Structural based (HCI) (HepG2 cells [4]; [11]): +VE
- hLiMTs ATP <20 x Cmax (PHH spheroids): -VE

SMILES: OC(CCN1CCCCC1)(c1ccccc1)C1CC2C=CC1C2 (stereo not drawn) [biperiden]
- Cluster 1-6 +VE Assay [1, 10]: -VE

SMILES: CCCCN(CCCC)CCCOC(=O)c1ccc(N)cc1 [butacaine]
- In vivo DILI ([2]; ref Garside 2014): -VE
- Cluster 1-6 +VE Assay [1, 10]: +VE

SMILES: CO[C@@]1(NC(=O)C2SC(=C(C(N)=O)C(=O)O)S2)C(=O)N2C(C(=O)O)=C(CSc3nnnn3C)CS[C@@H]21 (stereo partly drawn) [cefotetan]
- DILI +VE (5-8), DILI -VE (-4) ([5]; ref Chen 2016): -VE
- DILI severity category ([5]; ref Chen 2016): Ambiguous DILI-concern
- In vivo DILI ([2]; ref Garside 2014): -VE
- Cluster 1-6 +VE Assay [1, 10]: -VE

SMILES: COc1ccc(C(Cl)=C(c2ccc(OC)cc2)c2ccc(OC)cc2)cc1 [chlorotrianisene]
- In vivo DILI ([2]; ref Garside 2014): -VE
- Cluster 1-6 +VE Assay [1, 10]: -VE

SMILES: O=C(O)c1cc(-c2ccccc2)nc2ccccc12 [cinchophen]
- Inhibition of rBsep cutoff<1& cmax u>.2 (rBsep): -VE
- Inhibition of rBsep cutoff<3 (rBsep): +VE
- DILI +VE (5-8), DILI -VE (-4) ([5]; in vivo): +VE
- DILI severity category ([5]; in vivo): vMost-DILI-Concern
- Partition Hybrid HRM Score [6]: +VE
- THLE-Null [7]: -VE
- In vivo DILI ([2]; in vivo): +VE

SMILES: CC(C)(Oc1ccc(C2CC2(Cl)Cl)cc1)C(=O)O (stereo not drawn) [ciprofibrate]
- Inhibition of rBsep cutoff<1& cmax u>.2 (rBsep): -VE
- Inhibition of rBsep cutoff<3 (rBsep): +VE
- THLE-Null [7]: -VE
- THLE-Null/3A4 [7]: -VE
- In vivo DILI ([2]; ref Dawson 2012): +VE
- In vivo DILI ([2]; ref Gustafsson 2014): +VE
- In vivo DILI ([2]; ref O'Brien 2006): +VE
- In vivo DILI ([2]; ref Schadt 2015): -VE
- In vivo DILI ([2]; ref Xu 2008): +VE
- Structural based (HCI) (human hepatocytes): +VE
- Structural based (HCI) (HepG2 cells [4]; [11]): +VE
- Cellular toxicity (3T3 cells) [8, 12]: -VE
- Combined Assay [8, 12]: -VE
- GSH adduct HML [8, 12]: -VE
- Hepatocyte cellular toxicity [8, 12]: -VE
- MitoTox 3T3 [8, 12]: -VE
- TDI CYP3A4 [8, 12]: -VE
- hBSEP inhibition [8, 12]: -VE

SMILES: CCCCC[C@H](O)/C=C/[C@H]1[C@H](O)CC(=O)[C@@H]1C/C=C\CCCC(=O)O [dinoprostone]
- In vivo DILI ([2]; ref Garside 2014): -VE
- Cluster 1-6 +VE Assay [1, 10]: -VE

SMILES: Cn1c(=O)c2c(ncn2CC(O)CO)n(C)c1=O (stereo not drawn) [dyphylline]
- DILI +VE (5-8), DILI -VE (-4) ([5]; ref Chen 2016): -VE
- DILI severity category ([5]; ref Chen 2016): vNo-DILI-Concern
- In vivo DILI ([2]; ref Garside 2014): -VE
- Cluster 1-6 +VE Assay [1, 10]: -VE

SMILES: C[C@H](N[C@@H](CCc1ccccc1)C(=O)O)C(=O)N1CCC[C@H]1C(=O)O [enalaprilat]
- DILI +VE (5-8), DILI -VE (-4) ([5]; ref Chen 2016): -VE
- DILI severity category ([5]; ref Chen 2016): Ambiguous DILI-concern
- In vivo DILI ([2]; in vivo): +VE
- Cluster 1-6 +VE Assay [1]: -VE

SMILES: O=c1[nH]cc(F)c(=O)[nH]1 [fluorouracil]
- DILI +VE (5-8), DILI -VE (-4) ([5]; ref Chen 2016): +VE
- DILI severity category ([5]; ref Chen 2016): vLess-DILI-Concern
- In vivo DILI ([2]; ref Garside 2014): +VE
- Cluster 1-6 +VE Assay [1, 10]: +VE

SMILES: NS(=O)(=O)c1cc(C(=O)O)c(NCc2ccco2)cc1Cl [furosemide, reference compound]
- THLE-Null [7]: -VE
- Cluser analysis (HepG2 cells [3]): -VE
- Structural based (HCI) (HepG2 cells [3]): -VE
- Structural based (HCI) (HepG2 cells [4]; [11]): -VE

SMILES: CC[C@@H](C(N)=O)N1CCCC1=O [levetiracetam]
- DILI +VE (5-8), DILI -VE (-4) ([5]; ref Chen 2016): +VE
- DILI severity category ([5]; ref Chen 2016): vLess-DILI-Concern
- In vivo DILI ([2]; ref Garside 2014): +VE
- Cluster 1-6 +VE Assay [1, 10]: +VE

SMILES: CC(Oc1c(Cl)cccc1Cl)C1=NCCN1 (stereo not drawn) [lofexidine]
- In vivo DILI [2, 13]: -VE
- Cluster 1-6 +VE Assay, In vitro Assay ([1]; ref Garside 2014): -VE

SMILES: CCCCc1nc(Cl)c(CO)n1Cc1ccc(-c2ccccc2-c2nn[nH]n2)cc1 [losartan]
- Partition Hybrid HRM Score ([6]; In vitro Assay, ref Aleo 2019): +VE
- Ro2 Hybrid HRM Score ([6]; In vitro Assay, ref Aleo 2019): +VE
- Cluster 1-6 +VE Assay [1, 10]: +VE
- Cellular toxicity (3T3 cells) [8, 12]: -VE
- Combined Assay [8, 12]: +VE
- GSH adduct HML [8, 12]: +VE
- Hepatocyte cellular toxicity [8, 12]: +VE
- MitoTox 3T3 [8, 12]: -VE
- TDI CYP3A4 [8, 12]: -VE
- hBSEP inhibition [8, 12]: +VE

SMILES: Cc1ccc(Nc2c(F)cccc2Cl)c(CC(=O)O)c1 [lumiracoxib]
- THLE-Null [7]: +VE
- in vitro data EC2<=1x Cmax [9]: +VE
- Cellular toxicity (3T3 cells) [8, 12]: -VE
- Combined Assay [8, 12]: +VE
- GSH adduct HML [8, 12]: +VE
- Hepatocyte cellular toxicity [8, 12]: -VE
- MitoTox 3T3 [8, 12]: -VE
- TDI CYP3A4 [8, 12]: -VE
- hBSEP inhibition [8, 12]: -VE

SMILES: CC(=O)[C@H]1CC[C@H]2[C@@H]3C[C@H](C)C4=CC(=O)CC[C@]4(C)[C@H]3[C@@H](O)C[C@]12C [medrysone]
- In vivo DILI [2, 13]: -VE
- Cluster 1-6 +VE Assay, In vitro Assay ([1]; ref Garside 2014): +VE

SMILES: Cc1cc2c(s1)Nc1ccccc1N=C2N1CCN(C)CC1 [olanzapine]
- THLE-Null [7]: -VE
- In vivo DILI ([2]; […]): -VE
- In vivo DILI ([2]; ref Gustafsson 2014): +VE
- In vivo DILI ([2]; ref Schadt 2015): -VE
- In vivo DILI ([2]; ref Williams 2019): +VE

SMILES: COc1cc(NC(C)CCCN)c2ncccc2c1 (stereo not drawn) [primaquine]
- DILI +VE (5-8), DILI -VE (-4) ([5]; ref Chen 2016): -VE
- DILI severity category ([5]; ref Chen 2016): vNo-DILI-Concern
- Partition Hybrid HRM Score ([6]; In vitro Assay, ref Aleo 2019): -VE
- Ro2 Hybrid HRM Score ([6]; In vitro Assay, ref Aleo 2019): -VE
- In vivo DILI ([2]; ref Aleo 2019): -VE
- In vivo DILI ([2]; ref O'Brien 2006): -VE
- In vivo DILI ([2]; ref Schadt 2015): -VE
- In vivo DILI ([2]; ref Vorrink 2018): -VE
- In vivo DILI ([2]; ref Xu 2008): -VE
- Structural based (HCI) (human hepatocytes): -VE
- Structural based (HCI) (HepG2 cells [4]; [11]): +VE
- hBSEP inhibition [8]: -VE
- hLiMTs ATP <20 x Cmax (PHH spheroids): -VE

SMILES: C=C[C@H]1C[N@@]2CC[C@H]1C[C@@H]2[C@@H](O)c1ccnc2ccc(OC)cc12 [quinidine]
- DILI +VE (5-8), DILI -VE (-4) ([5]; in vivo): +VE
- DILI severity category ([5]; in vivo): vLess-DILI-Concern
- Structural based (HCI) (HepG2 cells [4]): +VE
- Cellular toxicity (3T3 cells) [8]: +VE
- GSH adduct HML [8]: -VE
- TDI CYP3A4 [8]: -VE
- hBSEP inhibition [8]: -VE
- hLiMTs ATP <20 x Cmax (PHH spheroids): +VE (IC20 < 20 × Cmax.tot cut-off)

SMILES: O=C(O)c1ccccc1O [salicylic acid]
- Inhibition of rBsep cutoff<1& cmax u>.2 (rBsep): -VE
- Inhibition of rBsep cutoff<3 (rBsep): -VE
- THLE-Null [7]: -VE
- in vitro data EC2<=1x Cmax [9]: +VE

SMILES: Cc1nnc(NS(=O)(=O)c2ccc(N)cc2)s1 [sulfamethizole]
- Cluster 1-6 +VE Assay [1, 10]: -VE

SMILES: CCN1CCCC1CNC(=O)c1cc(S(N)(=O)=O)ccc1OC (stereo not drawn) [sulpiride]
- Inhibition of rBsep cutoff<1& cmax u>.2 (rBsep): -VE
- Inhibition of rBsep cutoff<3 (rBsep): -VE
- THLE-Null [7]: -VE
- In vivo DILI ([2]; in vivo): +VE

SMILES: Cn1nnc2c(C(N)=O)ncn2c1=O [temozolomide]
- DILI +VE (5-8), DILI -VE (-4) ([5]; ref Chen 2016): +VE
- DILI severity category ([5]; ref Chen 2016): vLess-DILI-Concern
- In vivo DILI ([2]; ref O'Brien 2006): -VE
- In vivo DILI ([2]; ref Vorrink 2018): -VE
- In vivo DILI ([2]; ref Xu 2008): -VE
- Structural based (HCI) (human hepatocytes): -VE
- Structural based (HCI) (HepG2 cells [4]; [11]): +VE (lowest HCI endpoint IC50 (or in the absence of dose–response < 100 µM) < 30 × total human plasma exposure levels (Cmax.tot))
- hLiMTs ATP <20 x Cmax (PHH spheroids): -VE

SMILES: CC(C)(C)NCC(O)c1cc(O)cc(O)c1 (stereo not drawn) [terbutaline]
- DILI +VE (5-8), DILI -VE (-4) ([5]; ref Chen 2016): +VE
- DILI severity category ([5]; ref Chen 2016): vLess-DILI-Concern
- In vivo DILI ([2]; ref Garside 2014): +VE
- Cluster 1-6 +VE Assay [1, 10]: +VE
